{"source": "ChEMBL document CHEMBL1201862", "about": "“PubChem BioAssay data set” (2004)", "key": {"[1]": {"assay": "ARNT/TACC3 interaction disruptors, potency, confirmation, biochemical, AlphaScreen, cherry-picked samples (AID 651703);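 note: His-tagged ARNT PAS-B domain paired with GST-TACC3 E629A dimer coactivator fragment; potency of inhibitors that break up the complex and lower AlphaScreen signal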", "assay_type": "functional, Homo sapiens"}, "[2]": {"target": "T1, High affinity choline transporter 1 (Homo sapiens, UniProt Q9GZV3)", "T1 sequence (Q9GZV3 whole entry)": "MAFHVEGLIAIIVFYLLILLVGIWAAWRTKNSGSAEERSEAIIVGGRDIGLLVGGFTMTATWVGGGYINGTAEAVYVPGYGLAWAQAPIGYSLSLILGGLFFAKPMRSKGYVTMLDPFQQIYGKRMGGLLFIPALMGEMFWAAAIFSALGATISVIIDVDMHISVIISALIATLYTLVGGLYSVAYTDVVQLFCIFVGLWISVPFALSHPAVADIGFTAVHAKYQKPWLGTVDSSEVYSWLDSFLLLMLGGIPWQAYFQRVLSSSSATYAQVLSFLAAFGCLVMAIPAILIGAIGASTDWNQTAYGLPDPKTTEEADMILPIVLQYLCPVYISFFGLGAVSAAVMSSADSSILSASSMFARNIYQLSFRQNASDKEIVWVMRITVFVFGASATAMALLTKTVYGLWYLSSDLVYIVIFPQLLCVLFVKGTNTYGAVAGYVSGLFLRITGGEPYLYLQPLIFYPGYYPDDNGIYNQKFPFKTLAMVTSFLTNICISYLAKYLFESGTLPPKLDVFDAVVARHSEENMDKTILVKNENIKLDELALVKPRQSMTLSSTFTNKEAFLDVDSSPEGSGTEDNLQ", "assay": "CHT inhibitors, dose response, cell-based, 5-point CRC, membrane potential dye (AID 504840)", "assay_type": "functional"}, "[3]": {"target": "T1, High affinity choline transporter 1", "assay": "inhibitors of CHT choline uptake, dose response, cell-based, 3H-choline uptake, CHT LV-AA trafficking mutant, CRC (AID 602208)", "assay_type": "functional"}, "[4]": {"target": "T1, High affinity choline transporter 1", "assay": "CHT inhibitors, dose response, cell-based, 10-point CRC, membrane potential dye (AID 588401);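 note: membrane potential dye fluorescence of choline-evoked depolarization via CHT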", "assay_type": "functional"}, "[5]": {"assay": "Vero E6 cell cytotoxicity, dose response, cytotoxicity control for non-replicating M. tuberculosis project, secondary assay (AID 492998)", "assay_type": "functional, VeroE6", "settings": "Vero C1008"}, "[6]": {"target": "Mitochondrial peptide methionine sulfoxide reductase (Bos taurus, UniProt P54149)", "sequence (P54149 whole entry)": "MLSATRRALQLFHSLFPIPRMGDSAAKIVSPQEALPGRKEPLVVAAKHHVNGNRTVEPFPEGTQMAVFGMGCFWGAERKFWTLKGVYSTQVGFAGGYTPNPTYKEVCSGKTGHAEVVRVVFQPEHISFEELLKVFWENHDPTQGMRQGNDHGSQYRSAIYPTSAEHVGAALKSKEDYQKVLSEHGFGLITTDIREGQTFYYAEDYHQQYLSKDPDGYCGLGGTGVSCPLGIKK", "assay": "Absorbance-based biochemical high throughput dose response assay for activators of Methionine sulfoxide reductase A (MsrA).", "assay_type": "functional"}, "cells": {"assay": "cells", "assay_type": "functional"}, "[7]": {"assay": "inhibitors of intracellular T. cruzi replication, confirmation, NIH3T3 host cells, beta-gal luminescence (AID 2044);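 note: luminescent beta-galactosidase reporter signal from transgenic T. cruzi replicating inside host cells; inhibitors lower the luminescence signal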", "assay_type": "functional, cell-based"}, "[8]": {"assay": "THP-1 cell cytotoxicity, dose response, cytotoxicity control for non-replicating M. tuberculosis project (AID 489025)", "assay_type": "functional"}, "[9]": {"target": "T2, Microphthalmia-associated transcription factor (Homo sapiens, UniProt O75030)", "T2 sequence (O75030 whole entry)": "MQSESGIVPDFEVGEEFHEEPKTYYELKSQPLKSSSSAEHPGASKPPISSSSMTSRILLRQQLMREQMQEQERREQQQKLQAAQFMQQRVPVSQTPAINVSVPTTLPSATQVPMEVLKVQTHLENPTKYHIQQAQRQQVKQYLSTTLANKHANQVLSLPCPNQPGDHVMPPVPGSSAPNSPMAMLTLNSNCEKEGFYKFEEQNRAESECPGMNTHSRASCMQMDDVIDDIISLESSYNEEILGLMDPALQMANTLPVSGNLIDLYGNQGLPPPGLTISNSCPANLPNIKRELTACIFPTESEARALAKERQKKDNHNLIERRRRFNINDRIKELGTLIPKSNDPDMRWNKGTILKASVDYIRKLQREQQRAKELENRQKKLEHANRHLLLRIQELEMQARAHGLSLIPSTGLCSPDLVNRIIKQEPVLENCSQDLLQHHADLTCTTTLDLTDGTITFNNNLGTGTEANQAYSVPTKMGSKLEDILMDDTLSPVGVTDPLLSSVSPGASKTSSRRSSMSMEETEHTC", "assay": "TRPM1 promoter luciferase signal decrease, dose response, MITF inhibitor project, cell-based, SK-MEL-5, cherry-picked, set 3 (AID 493073)", "assay_type": "functional"}, "[10]": {"assay": "cytotoxicity toward NIH3T3 fibroblasts, dose response, counter-screen, cell-based, ATP luminescence, mouse fibroblasts (AID 2010);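 note: cells exposed to compound for about 90 hours before reading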", "assay_type": "functional"}, "[11]": {"assay": "HepG2 cell cytotoxicity, cytotoxicity control, set 4 (AID 504910)", "assay_type": "functional", "settings": "Mycobacterium tuberculosis"}}, "note": "Activity calls are given as the source filed them.", "data": [{"compound": "CCOc1ccc2c(c1)C(N(CCN1CCOCC1)C(=O)Nc1ccccc1)CC(C)(C)O2", "note": "(configuration not stated)", "values": [{"measurement": "AC50", "setting": "[1]", "result": "84 µM (active)"}]}, {"compound": "COc1ccc(C(=O)NC2CCc3ccccc32)cc1OC1CCN(C(C)C)CC1", "note": "(configuration not stated)", "values": [{"measurement": "IC50", "setting": "[2]", "result": "5.55 µM (active)"}, {"measurement": "IC50", "setting": "[3]", "result": "2.12 µM (active)"}, {"measurement": "IC50", "setting": "[4]", "result": "3.36 µM (active)"}]}, {"compound": "O=C(N/N=C/c1ccc([N+](=O)[O-])s1)c1cccc(Br)c1", "values": [{"measurement": "CC50", "setting": "[5]", "result": "6.21 µM (active)"}, {"measurement": "EC50", "setting": "[6]", "result": "> 104 µM (inactive)"}, {"measurement": "IC50", "setting": "cells", "result": "4.37 µM (active)"}, {"measurement": "EC50", "setting": "[7]", "result": "754 nM (active)"}, {"measurement": "CC50", "setting": "[8]", "result": "7.59 µM (active)"}, {"measurement": "AC50", "setting": "[9]", "result": "4.83 µM (active)"}, {"measurement": "EC50", "setting": "[10]", "result": "5.39 µM (active)"}]}, {"compound": "Cc1nc(SCC(=O)NC2CCCCC2)nc(O)c1C", "values": [{"measurement": "CC50", "setting": "[11]", "result": "> 50 µM (active)"}]}]}
